≈ marks a conversion by molar mass, not a printed value.
Tests used:
[1] = Cytotoxicity assay (Alamar Blue); format: cell-based; details: human, concentrations 10–0.0032 μg/mL
Procedure: In order to verify the safety of maleimides, they were tested for cytotoxicity against human monocytic leukemia cells (THP1) 50% cytotoxic concentration values represent the concentration of compound required to kill 50% of the THP1 cells were calculated (CC50). The selectivity indices were calculated using the formula SI = CC50 /IC50, against promastigotes. […] SIs of 16 and 42 were greater than 781.3.
(§1) In vitro anti-leishmanial assay. The antileishmanial activity of the compounds was tested in vitro against a culture of L. donovani promastigotes. The promastigotes were grown in RPMI 1640 medium supplemented with 10% fetal calf serum (Gibco Chem. Co., 81 Wyman Street, Waltham, MA, USA) at 26 °C. A three day old culture was diluted to 5 × 10^5 promastigotes/mL. Drug dilutions were prepared directly in cell suspension in 96-well plates. Plates were incubated at 26 °C for 48 h and the growth of Leishmania promastigotes was determined by the Alamar blue assay as described earlier. Standard fluorescence was measured on a Fluostar Galaxy plate reader (BMG Lab Technologies, Offenburg, Germany) at an excitation wavelength of 544 nm and an emission wavelength of 590 nm. Pentamidine and amphotericin B were used as the standard anti-leishmanial agents. IC50 values were computed from dose-response curves as above. The tested compounds were diluted with six concentrations (from 40–0.0128 μg/mL). Cytotoxicity assay. The in vitro cytotoxicity was determined against human monocytic leukemia cells (THP1) with a simple colorimetric method using the dye Alamar Blue. […] Cells were grown to a density between 0.2 and 1 × 10^6 cells/mL. Culture medium was replaced every 2–3 days with fresh growth medium. DMSO was used as the solvent, and the test compounds was with six concentrations from 10–0.0032 μg/mL.
The in vitro cytotoxicity was determined against human monocytic leukemia cells (THP1) with a simple colorimetric method using the dye Alamar Blue, which was reported in the reference (Mikus, J.; Steverding, D. A simple colorimetric method to screen drug cytotoxicity against Leishmania, using the dye Alamar Blue. Parasitol Int. 2000, 48(3),265-269.). THP1 suspensions were grown in RPMI-1640 medium supplemented with 10% FBS, 2 mM glutamine, 50 μg/mL […]
were grown to a density between 0.2 and 1×10^6 cells/mL. Culture medium was replaced every 2-3 days with fresh growth medium. DMSO was used as the solvent, and the test compounds was with six concentrations from 10-0.0032μg/mL.

[2] = system: L. donovani promastigotes; test: In vitro anti-leishmanial assay (Alamar blue, promastigotes); format: cell-based, Leishmania donovani; details: for IC50: Leishmania donovani, 48 h, read-out: L. donvani IC50; for SI: SI = CC50 /IC50, THP1 vs promastigotes; for anti-leishmanial activity, times better than amphotericin B: L. donovani, relative to amphotericin B
Procedure: Anti-leishmanial activity in vitro was described in terms of IC50, which is the effective concentration (μg/mL) required to achieve 50% growth inhibition, with promastigotes in their exponential growth phase.
as §1, with “Pentamidine and amphotericin B were used as the standard anti-leishmanial agents.” left out

β-(1,3)-glucan synthase = system: β-(1,3)-glucan synthase; set-up: method as in PMID 21612375; details: cited from earlier work
[3] = THP1 cells (human monocytic leukemia)

Row | Compound | CC50 [1, 3] [µg/mL] | IC50 [2] [µg/mL] | SI [2] | CC50 ([1]; THP1 cells) [µg/mL] | melting point [°C] | anti-leishmanial activity, times better than amphotericin B [2] | IC50 β-(1,3)-glucan synthase (β-(1,3)-glucan synthase) [µg/mL]
1 | CCCCCCCCCCCCN1C(=O)C=CC1=O [Compound 5] | > 10 | 2.21 (≈ 8.33 µM) | >4.5 |  |  |  | 
2 | CCCCCN1C(=O)C(Cl)=C(Cl)C1=O [Compound 29] |  | 0.65 (≈ 2.75 µM) | >15.4 | > 10 |  |  | 
3 | O=C1C=CC(=O)N1CCc1ccccc1 [Compound 7] | 4.13 (≈ 20.5 µM) | 0.1 (≈ 0.497 µM) | 41.3 |  |  |  | 
4 | CCCCCCN1C(=O)C=C(C)C1=O [Compound 19] | 5.89 (≈ 30.2 µM) | 0.81 (≈ 4.15 µM) | 7.3 |  |  |  | 
5 | Cc1cccc(C)c1N1C(=O)C=CC1=O [Compound 13] | 3.65 (≈ 18.1 µM) | 0.1 (≈ 0.497 µM) | 36.5 |  | 188.8 to 190.4 |  | 
6 | CCCCCN1C(=O)C=C(C)C1=O [Compound 18] | 7.64 (≈ 42.2 µM) | 0.58 (≈ 3.2 µM) | 13.2 |  |  |  | 
7 | O=C1C(Cl)=C(Cl)C(=O)N1CCCc1ccccc1 [Compound 33] | > 10 | 0.4 (≈ 1.41 µM) | >25.0 |  |  |  | 
8 | O=C1C(Cl)=C(Cl)C(=O)N1CCc1ccccc1 [Compound 32] |  | 1.64 (≈ 6.07 µM) | >6.1 | > 10 |  |  | 
9 | CC1=CC(=O)N(C2CCCCC2)C1=O [Compound 27] | 7.15 (≈ 37 µM) | 0.89 (≈ 4.61 µM) | 8.0 |  | 65.6 to 66.5 |  | 
10 | CC(C)CN1C(=O)C=CC1=O [Compound 16] | > 10 | < 0.0128 |  |  | 52.8 to 53.9 | 10 | 
11 | O=C1C=CC(=O)N1c1ccc(Cl)cc1 [Compound 12] | > 10 | 1.02 (≈ 4.91 µM) | >9.8 |  |  |  | 
12 | CC1=CC(=O)N(Cc2ccccc2)C1=O [Compound 21] | 7.94 (≈ 39.5 µM) | 0.58 (≈ 2.88 µM) | 13.7 |  |  |  | 
13 | CCCCN1C(=O)C=CC1=O [Compound 1] | > 10 | 0.08 (≈ 0.522 µM) | >125.0 |  |  |  | 
14 | N=C(N)c1ccc(OCCCCCOc2ccc(C(=N)N)cc2)cc1 [pentamidine, reference compound] |  | 0.64 (≈ 1.88 µM) |  |  |  |  | 
15 | O=C1C=CC(=O)N1Cc1ccccc1 [Compound 6] | 4.56 (≈ 24.4 µM) | 0.08 (≈ 0.427 µM) | 57.0 |  |  |  | 
16 | CC1=CC(=O)N(c2c(C)cccc2C)C1=O [Compound 23] | > 10 | 13.2 (≈ 61.2 µM) | >0.8 |  | 190.8 to 192 |  | 
17 | CCc1cccc(CC)c1N1C(=O)C(Cl)=C(Cl)C1=O [Compound 39] |  | 0.13 (≈ 0.436 µM) | >76.9 | > 10 | 204.1 to 205.8 |  | 
18 | O=C1C=CC(=O)N1c1ccccc1 [Compound 9] | > 10 | 0.24 (≈ 1.39 µM) | >41.7 |  |  |  | 
19 | O=C1C(Cl)=C(Cl)C(=O)N1c1ccc(Cl)cc1 [Compound 37] |  | 0.59 (≈ 2.13 µM) | >16.9 | > 10 |  |  | 
20 | CCCCCCCCN1C(=O)C(Cl)=C(Cl)C1=O [Compound 31] |  | 0.48 (≈ 1.73 µM) | >20.8 | > 10 |  |  | 
21 | CCc1cccc(CC)c1N1C(=O)C=C(C)C1=O [Compound 24] | 4.39 (≈ 18 µM) | 0.55 (≈ 2.26 µM) | 8.0 |  | 195.8 to 197.3 |  | 
22 | CC1=CC(=O)N(CCc2ccccc2)C1=O [Compound 22] | 5.99 (≈ 27.8 µM) | 1.22 (≈ 5.67 µM) | 4.9 |  |  |  | 
23 | CC(C)CN1C(=O)C(Cl)=C(Cl)C1=O [Compound 44] | > 10 | 0.43 (≈ 1.94 µM) | >23.3 |  | 63.8 to 64.5 |  | 
24 | CCCCCCCCN1C(=O)C=CC1=O [Compound 4] | > 10 | 0.27 (≈ 1.29 µM) | >37.0 |  |  |  | 

Row | Compound | CC50 [1, 3] [µg/mL] | IC50 [2] [µg/mL] | SI [2] | CC50 ([1]; THP1 cells) [µg/mL] | melting point [°C] | anti-leishmanial activity, times better than amphotericin B [2] | IC50 β-(1,3)-glucan synthase (β-(1,3)-glucan synthase) [µg/mL]
25 | O=C1C(Cl)=C(Cl)C(=O)N1c1ccccc1 [Compound 34] |  | 0.76 (≈ 3.14 µM) | >13.2 | > 10 |  |  | 
26 | O=C1C=CC(=O)N1CCCc1ccccc1 [Compound 8] | 8.25 (≈ 38.3 µM) | 0.11 (≈ 0.511 µM) | 75.0 |  |  |  | 
27 | CCN1C(=O)C=CC1=O [N-ethyl-maleimide] |  |  |  |  |  |  | 8.5 ± 1.1 (≈ 67.9 µM)
28 | Cc1ccc(N2C(=O)C(Cl)=C(Cl)C2=O)cc1 [Compound 35] |  | 0.66 (≈ 2.58 µM) | >15.2 | > 10 |  |  | 
29 | O=C1C=CC(=O)N1c1ccc(F)cc1 [Compound 11] | > 10 | 0.32 (≈ 1.67 µM) | >31.3 |  |  |  | 
30 | O=C1C(Cl)=C(Cl)C(=O)N1c1ccc(F)cc1 [Compound 36] | > 10 | 0.36 (≈ 1.38 µM) | >27.8 |  |  |  | 
31 | CCCCCCN1C(=O)C=CC1=O [Compound 3] | > 10 | 0.11 (≈ 0.607 µM) | >90.9 |  |  |  | 
32 | Cc1c(Cl)cccc1N1C(=O)C(Cl)=C(Cl)C1=O [Compound 40] |  | 0.13 (≈ 0.447 µM) | >76.9 | > 10 | 162.3 to 164.1 |  | 
33 | CCCCCN1C(=O)C=CC1=O [Compound 2] | > 10 | 0.36 (≈ 2.15 µM) | >27.8 |  |  |  | 
34 | O=C1C(Cl)=C(Cl)C(=O)N1C1CCCCC1 [Compound 45] |  | 0.26 (≈ 1.05 µM) | >38.5 | > 10 | 67.2 to 68.5 |  | 
35 | CC1=CC(=O)N(CC(C)C)C1=O [Compound 26] | > 10 | 0.64 (≈ 3.83 µM) | >15.6 |  |  |  | 
36 | CCc1cccc(CC)c1N1C(=O)C=CC1=O [Compound 14] | 3.89 (≈ 17 µM) | 0.08 (≈ 0.349 µM) | 48.6 |  | 192.8 to 194.1 |  | 
37 | O=C1C(Cl)=C(Cl)C(=O)N1c1cc(Cl)cc(Cl)c1 [Compound 43] |  | 0.99 (≈ 3.18 µM) | >10.1 | > 10 |  |  | 
38 | Cc1c(N2C(=O)C(Cl)=C(Cl)C2=O)cccc1[N+](=O)[O-] [Compound 42] | > 10 | < 0.0128 |  |  | 168.8 to 169.9 | 10 | 
39 | Cc1cccc(C)c1N1C(=O)C(Cl)=C(Cl)C1=O [Compound 38] |  | 0.45 (≈ 1.67 µM) | >22.2 | > 10 | 200.8 to 201.6 |  | 
40 | CCCCCCCCN1C(=O)C=C(C)C1=O [Compound 20] | 8.1 (≈ 36.3 µM) | 0.96 (≈ 4.3 µM) | 8.4 |  |  |  | 
41 | Cc1ccc(Cl)cc1N1C(=O)C(Cl)=C(Cl)C1=O [Compound 41] |  | 0.11 (≈ 0.379 µM) | >90.9 | > 10 | 160.1 to 161.4 |  | 
42 | CCCCN1C(=O)C(Cl)=C(Cl)C1=O [Compound 28] |  | 0.47 (≈ 2.12 µM) | >21.3 | > 10 |  |  | 
43 | O=C1C=CC(=O)N1c1cc(F)c(F)c(F)c1 [Compound 15] | > 10 | 0.21 (≈ 0.925 µM) |  |  | 153.4 to 165.6 |  | 
44 | O=C1C=CC(=O)N1C1CCCCC1 [Compound 17] | > 10 | 0.26 (≈ 1.45 µM) | >38.5 |  |  |  | 
45 | Cc1ccc(N2C(=O)C=CC2=O)cc1 [Compound 10] | > 10 | 0.15 (≈ 0.801 µM) | >66.7 |  |  |  | 
46 | CCCCCCN1C(=O)C(Cl)=C(Cl)C1=O [Compound 30] |  | 0.49 (≈ 1.96 µM) | >20.4 | > 10 |  |  | 
47 | CC1=CC(=O)N(c2cc(Cl)cc(Cl)c2)C1=O [Compound 25] |  | 0.34 (≈ 1.33 µM) | 2.4 | 0.8 (≈ 3.12 µM) | 170.8 to 173.2 |  | 
48 | CC(C)(C)N1C(=O)C=CC1=O [N-tert-butyl-maleimide] |  |  |  |  |  |  | 13.7 ± 2.3 (≈ 89.4 µM)

Reference: paper PMC6278306, “Anti-Leishmanial and Cytotoxic Activities of a Series of Maleimides: Synthesis, Biological Evaluation and Structure-Activity Relationship” (Molecules, 2018)
